The source of these data is ChEMBL document CHEMBL3352218, “Structural basis for inhibition of mycobacterial and human adenosine kinase by 7-substituted 7-(Het)aryl-7-deazaadenine ribonucleosides” (J Med Chem, 2014).

SMILES strings stand for the structures. Converted amounts (≈) assume the structure as drawn. The source made the active and inactive calls. Bounds are passed on as bounds.

The target in assay [1] is T1, Adenosine kinase (Homo sapiens, UniProt P55263). The assay is described as follows: Binding affinity to human ADK expressed in Escherichia coli BL21(DE3) cells assessed as relative STD enhancements of signal from H-8 at 500 uM by 1H STD NMR spectroscopy.
Target sequence in this assay (P55263 2-362 limits assumed): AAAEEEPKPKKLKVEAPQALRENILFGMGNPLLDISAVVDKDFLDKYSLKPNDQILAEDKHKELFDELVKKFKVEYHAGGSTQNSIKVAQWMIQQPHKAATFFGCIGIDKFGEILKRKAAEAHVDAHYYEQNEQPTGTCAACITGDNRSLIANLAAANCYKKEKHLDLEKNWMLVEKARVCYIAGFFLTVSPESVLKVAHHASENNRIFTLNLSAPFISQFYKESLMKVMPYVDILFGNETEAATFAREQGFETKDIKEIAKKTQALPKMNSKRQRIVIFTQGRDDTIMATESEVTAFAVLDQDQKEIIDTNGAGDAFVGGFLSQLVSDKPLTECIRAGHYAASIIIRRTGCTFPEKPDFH
For assay [2], the target named is T1, Adenosine kinase. In words: Binding affinity to human ADK expressed in Escherichia coli BL21(DE3) cells assessed as relative STD enhancements of signal from H-1' at 500 uM by 1H STD NMR spectroscopy.
Target sequence in this assay (P55263 2-362 limits assumed): as above
In assay [3] the test system is Mycobacterium tuberculosis. The assay is described as follows: Binding affinity to Mycobacterium tuberculosis ADK expressed in Escherichia coli BL21(DE3) cells assessed as relative STD enhancements of signal from H-8 at 500 uM by 1H STD NMR spectroscopy.
Assay [4] deals with Mycobacterium tuberculosis. In words: Binding affinity to Mycobacterium tuberculosis ADK expressed in Escherichia coli BL21(DE3) cells assessed as relative STD enhancements of signal from H-1' at 500 uM by 1H STD NMR spectroscopy.
Assay [5] has as its system Mycobacterium tuberculosis. In words: Binding affinity to Mycobacterium tuberculosis ADK expressed in Escherichia coli BL21(DE3) cells assessed as relative STD enhancements of signal from H-2 at 500 uM by 1H STD NMR spectroscopy.
The target of assay [6] is T1, Adenosine kinase. In words: Binding affinity to human ADK expressed in Escherichia coli BL21(DE3) cells assessed as relative STD enhancements of signal from H-2 at 500 uM by 1H STD NMR spectroscopy.
Target sequence in this assay (P55263 2-362 limits assumed): as above
For assay [7], the target named is T1, Adenosine kinase. In words: Inhibition of human ADK expressed in Escherichia coli BL21(DE3) cells using [3H]adenosine by liquid scintillation counting method.
Target sequence in this assay (P55263 whole entry): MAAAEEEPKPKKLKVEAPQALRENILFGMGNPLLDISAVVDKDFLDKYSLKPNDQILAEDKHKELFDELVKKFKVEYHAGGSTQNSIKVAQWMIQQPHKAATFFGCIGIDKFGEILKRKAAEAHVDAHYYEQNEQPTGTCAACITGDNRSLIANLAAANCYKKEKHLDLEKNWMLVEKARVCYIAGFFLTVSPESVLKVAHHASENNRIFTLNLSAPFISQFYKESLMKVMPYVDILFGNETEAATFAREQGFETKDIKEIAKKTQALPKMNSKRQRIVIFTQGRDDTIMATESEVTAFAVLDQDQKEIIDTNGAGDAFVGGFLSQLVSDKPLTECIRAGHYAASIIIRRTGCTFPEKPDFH
The subject of assay [8] is Mycobacterium tuberculosis. In words: Binding affinity to Mycobacterium tuberculosis ADK expressed in Escherichia coli BL21(DE3) cells assessed as relative STD enhancements of signal from Ar'' at 500 uM by 1H STD NMR spectroscopy.
Assay [9] concerns Mycobacterium tuberculosis. The assay is described as follows: Binding affinity to Mycobacterium tuberculosis ADK expressed in Escherichia coli BL21(DE3) cells assessed as relative STD enhancements of signal from Ar' at 500 uM by 1H STD NMR spectroscopy.
The test system of assay [10] is Mycobacterium tuberculosis. The assay is described as follows: Activity of Mycobacterium tuberculosis ADK expressed in Escherichia coli BL21(DE3) cells assessed as compound phosphorylation by measuring conversion of compound to 5'-phosphate.
Assay [11] has as its target T1, Adenosine kinase. In words: Binding affinity to human ADK expressed in Escherichia coli BL21(DE3) cells in presence of adenosine by two dimensional 15N/1H triple-resonance HSQC NMR spectroscopy.
Target sequence in this assay (P55263 2-362 limits assumed): as the sequence (P55263 2-362 limits assumed) above
The target in assay [12] is T1, Adenosine kinase. In words: Binding affinity to human ADK expressed in Escherichia coli BL21(DE3) cells in presence of ATPgammaS by two dimensional 15N/1H triple-resonance HSQC NMR spectroscopy.
Target sequence in this assay (P55263 2-362 limits assumed): as above
Assay [13] can be described thus: Inhibition of Mycobacterium tuberculosis ADK expressed in Escherichia coli BL21(DE3) cells using [3H]adenosine by liquid scintillation counting method.
The next assay relates to BJ. The assay is described as follows: Cytotoxicity against human BJ cells by MTT assay. The format is functional. (Formazan colour is commonly taken as a measure of viable cells.)
The target in assay [14] is T1, Adenosine kinase. In words: Activity of human ADK expressed in Escherichia coli BL21(DE3) cells assessed as compound phosphorylation by measuring conversion of compound to 5'-phosphate. Also noted: concentration or dose not given beside the values.
Target sequence in this assay (P55263 2-362 limits assumed): as above
For assay [15], the target named is T1, Adenosine kinase. The assay is described as follows: Binding affinity to human ADK expressed in Escherichia coli BL21(DE3) cells assessed as relative STD enhancements of signal from Ar at 500 uM by 1H STD NMR spectroscopy.
The test system of another assay is MRC5. The assay is described as follows: Cytotoxicity against human MRC5 cells by MTT assay. Type of assay: functional.
Assay [16] addresses T1, Adenosine kinase. In words: Binding affinity to free human ADK expressed in Escherichia coli BL21(DE3) cells by two dimensional 15N/1H triple-resonance HSQC NMR spectroscopy.
Assay [17] deals with Mycobacterium tuberculosis. In words: Binding affinity to Mycobacterium tuberculosis ADK expressed in Escherichia coli BL21(DE3) cells assessed as relative STD enhancements of signal from Ar at 500 uM by 1H STD NMR spectroscopy.
The subject of assay [18] is Mycobacterium tuberculosis. In words: Antimycobacterial activity against Mycobacterium tuberculosis H37Rv My 331/88 assessed as microbial growth inhibition incubated for 14 days. The format is functional. The settings on record: H37Rv My 331/88, 336 h.
The subject of assay [19] is Mycobacterium tuberculosis. The assay is described as follows: Mixed competitive inhibition of Mycobacterium tuberculosis ADK expressed in Escherichia coli BL21(DE3) cells using varying ATP levels by Lineweaver-Burk plot.
For assay [20], the target named is T1, Adenosine kinase. The assay is described as follows: Mixed uncompetitive inhibition of human ADK expressed in Escherichia coli BL21(DE3) cells using varying ATP levels by Lineweaver-Burk plot.
Assay [21] concerns the target T1, Adenosine kinase. In words: Mixed competitive inhibition of human ADK expressed in Escherichia coli BL21(DE3) cells using varying adenosine levels by Lineweaver-Burk plot.
Assay [22] has as its system Mycobacterium tuberculosis. In words: Mixed competitive inhibition of Mycobacterium tuberculosis ADK expressed in Escherichia coli BL21(DE3) cells using varying adenosine levels by Lineweaver-Burk plot.

Regarding `Nc1ncnc2c1ncn2[C@@H]1O[C@H](CO)[C@@H](O)[C@H]1O`, the Activity on Adenosine kinase [1] is 20%; on Adenosine kinase [2], 100%; in [3], 58%; in [4], 100%; in assay [5], 44%; at Adenosine kinase [6] it was 8%.
With `Nc1ncnc2c1c(-c1ccco1)cn2[C@@H]1O[C@H](CO)[C@@H](O)[C@H]1O`, the Activity is 36% at Adenosine kinase [1]; 100% at Adenosine kinase [2]; 39% in assay [8]; 31% in assay [9]; 29% in assay [3]; 100% in assay [4]. The Activity in [5] stood at 43%; on Adenosine kinase [14] it was 8%; at Adenosine kinase [15], 74%; in assay [17], 38%; at Adenosine kinase [6], 64%. Also, the figures for the IC50 (against Adenosine kinase [7]; in [13]) were more than 5 µM and 2.1 µM, respectively. Besides, the outcome in assay [10] was inactive. Moreover, the result at Adenosine kinase [11], on Adenosine kinase [12] and at Adenosine kinase [16] was Active. The half-maximal cytotoxic concentration (CC50) – broadly, the concentration that lowers cell viability or growth by half – in the assay with BJ was 18.3 µM; in the assay on MRC5 it was 9.49 µM. Besides, the MIC – broadly, the smallest concentration in the dilution series that meets the test's criterion for growth inhibition – in [18] amounted to 62.5 µM (≈ 20.8 µg/mL).
`C#Cc1cn([C@@H]2O[C@H](CO)[C@@H](O)[C@H]2O)c2ncnc(N)c12`: the Activity on Adenosine kinase [1] worked out at 17%; at Adenosine kinase [2], 100%; in [3], 54%; in assay [4] it was 100%; in assay [5], 63%; on Adenosine kinase [14], 62%. Also, on Adenosine kinase [6], the Activity was 33%. In [10], the result was inactive. The outcome on Adenosine kinase [11], at Adenosine kinase [12] and at Adenosine kinase [16] was Active. In addition, the inhibition entry (in assay [19]; on Adenosine kinase [20]; on Adenosine kinase [21]; in assay [22]) was “Active” in each case. Also, in [13], the IC50 – broadly, the midpoint of a concentration-inhibition curve – stood at 0.33 µM. For the same molecule, the CC50 came to 43.1 µM with BJ and 13.4 µM in the assay on MRC5. Also, the minimal inhibitory concentration (MIC) in assay [18] came out at 8 µM (≈ 2.32 µg/mL).
With `Nc1ncnc2c1c(-c1nccs1)cn2[C@@H]1O[C@H](CO)[C@@H](O)[C@H]1O`, the Activity stood at 41% at Adenosine kinase [1]; 100% at Adenosine kinase [2]; 45% in assay [9]; 33% in [3]; 100% in assay [4]; 37% in assay [5]. The Activity on Adenosine kinase [14] was found to be 3%; at Adenosine kinase [15], 52%; in [17] it was 34%; at Adenosine kinase [6] it was 57%. Also, the IC50 against Adenosine kinase [7] was determined as 2.3 µM; in assay [13], 4.5 µM. Further, the outcome in assay [10] was inactive. The outcome at Adenosine kinase [11], at Adenosine kinase [12] and at Adenosine kinase [16] was Active. Moreover, the values for the CC50 in the assay on BJ and in the assay on MRC5 were more than 100 µM and 25.1 µM, respectively. Besides, in [18], the MIC worked out at 125 µM (≈ 43.7 µg/mL).
In the case of `Nc1ncnc2c1ncn2[C@@H]1O[C@H](COP(=O)(O)OP(=O)(O)OP(=O)(O)O)[C@@H](O)[C@H]1O`, the Activity on Adenosine kinase [1] is less than 1%; at Adenosine kinase [2] it was 100%; in assay [3], 24%; in assay [4], 100%; in [5], 57%; on Adenosine kinase [6], less than 1%.
As for `CC(C)c1cccc(-c2cn([C@@H]3O[C@H](CO)[C@@H](O)[C@H]3O)c3ncnc(N)c23)c1`, the Activity is 72% on Adenosine kinase [1]; 100% at Adenosine kinase [2]; 42% in assay [3]; 100% in assay [4]; 42% in [5]; 52% on Adenosine kinase [15]. For the same molecule, the values for the Activity (in assay [17]; at Adenosine kinase [6]) were 37% and 72%, respectively. Moreover, the values for the IC50 (at Adenosine kinase [7]; in assay [13]) were 3.3 µM and 2.33 µM, respectively. Also, the outcome in assay [10] was inactive. In addition, the outcome at Adenosine kinase [11], at Adenosine kinase [12] and at Adenosine kinase [16] was Active. The CC50 with BJ and with MRC5 was more than 100 µM each time. For the same molecule, the MIC in assay [18] is 32 µM (≈ 12.3 µg/mL).
Take `Nc1ncnc2c1c(-c1cccc3c1Oc1ccccc1S3)cn2[C@@H]1O[C@H](CO)[C@@H](O)[C@H]1O`: the Activity at Adenosine kinase [1] was found to be 39%; at Adenosine kinase [2] it was 100%; in assay [3] it was 68%; in [4] it was 100%; in assay [5] it was 50%; on Adenosine kinase [15] it was 60%. For the same molecule, the Activity was 83% in assay [17] and 33% at Adenosine kinase [6]. Moreover, the IC50 on Adenosine kinase [7] is more than 20 µM; in assay [13], 0.3 µM. For the same molecule, in [10], the result was inactive. For the same molecule, the outcome at Adenosine kinase [11], at Adenosine kinase [12] and on Adenosine kinase [16] was Active. The CC50 is more than 100 µM with BJ and 95.1 µM in the assay with MRC5. Also, in assay [18], the MIC was determined as 16 µM (≈ 7.43 µg/mL).
`Nc1ncnc2c1c(-c1ccc[nH]1)cn2[C@@H]1O[C@H](CO)[C@@H](O)[C@H]1O`: the IC50 was more than 20 µM on Adenosine kinase [7] and 4.4 µM in assay [13]. Moreover, in assay [10], the outcome was inactive. Moreover, the CC50 in the assay with BJ is more than 100 µM; in the assay with MRC5, 99.6 µM. Besides, the Activity at Adenosine kinase [14] was 6%. The MIC in assay [18] is 62.5 µM (≈ 20.7 µg/mL).
`Nc1ncnc2c1c(-c1c[nH]nn1)cn2[C@@H]1O[C@H](CO)[C@@H](O)[C@H]1O`: the values for the IC50 (against Adenosine kinase [7]; in [13]) were more than 20 µM and more than 10 µM, respectively. Moreover, in assay [10], the outcome was inactive. The CC50 is 0.08 µM in the assay with BJ and 0.1 µM with MRC5. Further, on Adenosine kinase [14], the Activity came out at 37%. The MIC in [18] was more than 250 µM.
